Results taken from patent publication US20120093809A1, “USE OF ALKANOYL L-CARNITINE IN COMBINATION WITH CHEMOTHERAPEUTIC AGENTS FOR THE TREATMENT OF NEOPLASMS” (priority 2008, published 2012).
pIC50: −log10 of the molar value.

Experiments:
[1] = test system: A549 non-small cell lung carcinoma; experiment: Antitumor activity of acetyl L-carnitine in combination with cisplatin, s.c. xenograft; type: in vivo
Description: Treatments started six days after cancer injection.
(§1) When tumors reached a volume of about 1 cm3, mice were sacrificed by cervical dislocation.
(§2) Body weight recording was carried out through the study.

[2] = test system: NCI-H1650 non-small cell lung carcinoma; experiment: as above; type: in vivo
Description: Treatments started eleven days after cancer injection.
as §1, §2

[3] = test system: SJSA-1 (with amplification of mdm2) osteosarcoma cells; experiment: Antiproliferative activity of cisplatin with and without acetyl L-carnitine, MTT assay; type: cell-based; details: acetyl L-carnitine 10 mM where combined, 72 h of exposure followed by 72 h of recovery, 0.1% FBS
Description: (§3) Moreover, the activity was also evaluated on two prostate tumor cell lines with p53 wild-type (LnCaP) or p53 null (PC3). […] The number of surviving cells was finally determined by the tetrazolium salt (MTT) assay, as described by Hansen M B et al. (Re-examination and further development of a precise and rapid dye method for measuring cell growth/cell kill. J. Immunol. Methods 119: 203-10, 1989). […] In this case the statistical comparison was performed by Mann-Whitney test.
(§4) To test the effects of the compounds on cell growth, tumor cells were seeded in 96-well tissue culture plates at approximately 10% confluence and were allowed to attach and recover for at least 24 h. Tumor cells were exposed to compounds for 72 h or 6 days in 0.1% FBS at 37° C., then medium culture was removed and 100 μL/well of medium were added containing 25 μL/well of a solution 5 mg/mL MTT (final 1 mg/mL). Plates were kept at. 37° C. in incubator with 5% CO2 for 2 h for the formation of blu chrystals. The supernatant was removed and 100 μL/well of lysant medium were added. Plates were kept under stirring for 60 min. The survival cell was determined as optical density by a Multiskan spectrofluorimeter at 570 nm.

[4] = test system: NCI-H1650 non-small cell lung carcinoma cells; experiment: as above; type: cell-based; details: acetyl L-carnitine 10 mM where combined, 6 days of exposure, 0.1% FBS
Description: as §3, §4

[5] = test system: PC3 prostate carcinoma cells (p53 null); experiment: as above; type: cell-based; details: acetyl L-carnitine 10 mM where combined, 72 h of exposure, 0.1% FBS
Description: as §3, §4

[6] = test system: LnCaP prostate carcinoma cells (p53 wild-type); experiment: as above; type: cell-based; details: acetyl L-carnitine 10 mM where combined, 6 days of exposure, 0.1% FBS
Description: as §3, §4

[7] = test system: A2780/Dx multidrug-resistant ovarian carcinoma cells; experiment: as above; type: cell-based; details: acetyl L-carnitine 10 mM where combined, 6 days of exposure, 0.1% FBS
Description: as §3
as §4, with “Tumor cells were exposed to compounds for 72 h or 6 days in 0.1% FBS at 37° C., then medium culture was removed and 100 μL/well of medium were added containing 25 μL/well of a solution 5 mg/mL MTT (final 1 mg/mL).” left out

[8] = test system: NCI-H460 non-small cell lung carcinoma cells; experiment: as above; type: cell-based; details: acetyl L-carnitine 10 mM where combined, 72H of exposure, 0.1% FBS
Description: as §3
as §4, with “Tumor cells were exposed to compounds for 72 h or 6 days in 0.1% FBS at 37° C., then medium culture was removed and 100 μL/well of medium were added containing 25 μL/well of a solution 5 mg/mL MTT (final 1 mg/mL).” left out

[9] = test system: NCI-H460 non-small cell lung carcinoma; experiment: Antitumor activity of cisplatin in combination with L-carnitine, s.c. xenograft; type: in vivo; details: cisplatin 4 mg/kg ip, alone or with L-carnitine 200 mg/kg po
Description: (§5) Treatments started three days after tumor injection.
(§6) To evaluate the antitumor activity, tumor diameters were measured with a Vernier caliper.
(§7) When tumors reached a volume of 1-2 cm^3, mice were sacrificed by cervical dislocation. Body weight recording was carried out through the study and mortality was noted.

[10] = test system: SW620 colon carcinoma with mutant p53; type: in vivo, CD1 nude mice; details: day +20; cisplatin 4 mg/kg ip, alone or with acetyl L-carnitine 200 mg/kg po
Description: (§8) Treatments started three days after cancer injection.
When tumors reached a volume of about 1 cm^3, mice were sacrificed by cervical dislocation.
as §2

[11] = test system: IGROV-1 ovarian carcinoma; type: in vivo, CD1 nude mice; details: day +41; cisplatin 4 mg/kg ip, alone or with acetyl L-carnitine 200 mg/kg po
Description: as §8
When tumors reached a volume of about 1-2 cm^3, mice were sacrificed by cervical dislocation.
as §2

[12] = test system: lung metastases; details: cisplatin alone, 6 to 8 mg/kg; cited from earlier work
[13] = test system: NCI-H460 NSCLC; experiment: Antitumor activity of cisplatin in combination with acetyl L-carnitine, s.c. xenograft; type: in vivo; details: cisplatin ip q3-4dx5, alone or with acetyl L-carnitine 200 mg/kg p.o. qdx5/wx4w
Description: as §5
Mice were subdivided (12 mice/group) in the following experimental groups:
Acetyl L-carnitine was administered immediately before the drug given in combination.
as §6, §7

[14] = cisplatin 4 mg/kg ip, alone or with acetyl L-carnitine 200 mg/kg po
[15] = day +41, cisplatin 4 mg/kg ip, alone or with acetyl L-carnitine 200 mg/kg po

## N.N.[Cl][Pt][Cl] [Cisplatin]
[1]; cisplatin 4 mg/kg ip q3-4d/wx3w, alone or with acetyl L-carnitine 200 mg/kg po qdx5/wx4w
  BWL % max: 8%
[1]; [14]
  TV ± SE: 208 ± 55 mm^3
  TVI % ± SE: 49 ± 12%
[2]; cisplatin 4 mg/kg ip q3-4d/wx3w, alone or with acetyl L-carnitine 200 mg/kg po qdx5/wx5w
  BWL % max: 10%
[2]; [15]
  TV ± SE +41: 206 ± 32 mm^3
  TVI % ± SE +41: 23 ± 4%
[3]; IC50±SD of cisplatin
  pIC50: 5.49
[3]; cisplatin 312 nM
  CELL SURVIVAL % ± SE: 100 ± 3.0%
[3]; cisplatin 625 nM
  CELL SURVIVAL % ± SE: 90 ± 6.0%
[3]; cisplatin 1250 nM
  CELL SURVIVAL % ± SE: 90 ± 2.0%
[3]; cisplatin 2500 nM
  CELL SURVIVAL % ± SE: 64 ± 2.0%
[3]; cisplatin 5000 nM
  CELL SURVIVAL % ± SE: 35 ± 1.0%
[4]; IC50±SD of cisplatin
  pIC50: 5.82
[4]; cisplatin 78 nM
  CELL SURVIVAL % ± SE: 98 ± 4.0%
[4]; cisplatin 312 nM
  CELL SURVIVAL % ± SE: 92 ± 2.0%
[4]; cisplatin 625 nM
  CELL SURVIVAL % ± SE: 81 ± 3.0%
[4]; cisplatin […]
  CELL SURVIVAL % ± SE: 95 ± 1.0%
[5]; IC50±SD of cisplatin
  pIC50: 5.33
[5]; cisplatin 625 nM
  CELL SURVIVAL % ± SE: 97%
[5]; cisplatin 1250 nM
  CELL SURVIVAL % ± SE: 89%
[5]; cisplatin 2500 nM
  CELL SURVIVAL % ± SE: 76%
[5]; cisplatin 5000 nM
  CELL SURVIVAL % ± SE: 52%
[5]; cisplatin 10000 nM
  CELL SURVIVAL % ± SE: 26%
[6]; IC50±SD of cisplatin
  pIC50: 5.11
[6]; cisplatin 1250 nM
  CELL SURVIVAL % ± SE: 92 ± 2%
[6]; cisplatin 2500 nM
  CELL SURVIVAL % ± SE: 74 ± 5%
[6]; cisplatin 5000 nM
  CELL SURVIVAL % ± SE: 67 ± 2%
[6]; cisplatin 10000 nM
  CELL SURVIVAL % ± SE: 51 ± 3%
[7]; IC50±SD of cisplatin
  pIC50: 6.14
[7]; cisplatin 625 nM
  CELL SURVIVAL % ± SE: 62 ± 2.0%
[7]; cisplatin 1250 nM
  CELL SURVIVAL % ± SE: 40 ± 1.0%
[7]; cisplatin 2500 nM
  CELL SURVIVAL % ± SE: 31 ± 1.0%
[7]; cisplatin […]
  CELL SURVIVAL % ± SE: 86 ± 2.0%
[8]; IC50±SD of cisplatin
  pIC50: 6.40
[8]; cisplatin 39 nM
  CELL SURVIVAL % ± SE: 96 ± 2.4%
[8]; cisplatin 78 nM
  CELL SURVIVAL % ± SE: 93 ± 4.0%
[8]; cisplatin 312 nM
  CELL SURVIVAL % ± SE: 61 ± 2.0%
[8]; cisplatin 625 nM
  CELL SURVIVAL % ± SE: 39 ± 1.0%
[8]; cisplatin 1250 nM
  CELL SURVIVAL % ± SE: 24 ± 0.7%
[8]; cisplatin […]
  CELL SURVIVAL % ± SE: 82 ± 2.0%
[9]; day +32
  TV ± SE +32: 345 ± 90 mm^3
[9]; dead/total mice
  Leth.: 0/9
[10]
  TV ± SE +20: 244 ± 45 mm^3
  TVI % ± SE +20: 55 ± 10%
[11]
  TV ± SE +41: 231 ± 55 mm^3
  TVI % ± SE +41: 35 ± 8%
[12]
  number of lung metastases: significantly reduced the number of lung metastases
[13]; DT = 2.6 days
  LCK (1 cm^3): 0.6
[13]; day +31
  TVI % +31: 41%
